According to paper PMC9606171, “Synthetic PPAR Agonist DTMB Alleviates Alzheimer’s Disease Pathology by Inhibition of Chronic Microglial Inflammation in 5xFAD Mice” (Neurotherapeutics, 2022):

What was measured:
[1] = test system: RAW 264.7 macrophage cells; test: Griess assay, LPS-induced NO production; format: cell-based; conditions: LPS (1 µg/mL), 24 h
Description: Griess assay (Promega) was performed under manufacturer’s instruction to measure the concentration of nitrite after inducing the inflammatory response in RAW 264.7 macrophage cells by LPS treatment. The well-known PPAR selective agonists, such as WY14643 (PPARα), GW501516 (PPAR-β/δ), and rosiglitazone (PPARγ), were used as positive controls.

primary microglia [2] = test: ELISA of proinflammatory cytokines, primary microglia; format: cell-based, mice; conditions: LPS or pre-aggregated human Aβ1-42, 24 h
Description: (§1) Primary microglia culture was conducted as described in a previous study. Mice at postnatal day 3 mice were used for the preparation of primary microglia. Newborn mice pups were anesthetized in ice and then sacrificed. Isolated cortex and hippocampus were collected after removing the meninges. Brain tissues were dissociated by incubating in HBSS (Gibco, Gaithersburg, MD, USA) with trypsin (2.5%) for 15 min. Cell homogenates were then incubated in M-CSF (20 ng/mL, R&D Systems) supplemented with DMEM-F12 medium with 10% fetal bovine serum, 10% horse serum, 1% GlutaMAX (Gibco, MD, USA), and 1% penicillin/streptomycin (Welgene, Korea). After 10 days, microglia were purified through shaking at 260 rpm for 2 h.
We measured cytokine level (TNF-α, IL-1β, and IL-6) in the media of LPS (1 μg/mL) and human Aβ1-42 (5 μg/mL)-treated BV2 microglia cells and primary microglia. Human Aβ1-42 (AnaSpec, Fremont, CA, USA) were pre-aggregated in the incubator for 24 h before the treatment to the cells. BV2 cells and primary microglia cells were seeded on 12-well plates (SPL) at a density of 1 × 10^5 cells/well cultured in 1 mL of complete media. After 12 h, LPS or human Aβ1-42 were treated to cells and were further incubated for 24 h with DTMB. […]

BV2 cells = test: Western blot of NF-κB, NLRP3 and ASC in BV2 cells; format: cell-based, mouse
Description: The BV2 mouse microglia cell line was received from Professor K. H. Suk (Kyungpook National University, Korea). BV2 cells were cultured with Dulbecco’s Modified Eagle Medium (DMEM) (Hyclone, Logan, UT, USA), containing 5% fetal bovine serum (FBS, Hyclone) and 50 μg/mL of gentamicin (Lonza, Switzerland), in a 5% CO2 incubator with a humidified atmosphere at 37 °C. RAW 264.7 macrophage cells were cultured with DMEM that contains 10% FBS and 1% penicillin/streptomycin in a 5% CO2 incubator with a humidified atmosphere at 37 °C.
(§2) Cells were lysed with lysis buffer containing 50 mM Tris (pH 7.4), 140 mM NaCl, 5 mM EDTA, and a protease inhibitor tablet, followed by sonication. Lysate protein concentrations were determined using Bradford reagents (AMERSCO, MA, USA). Proteins were resolved by sodium dodecyl sulfate (SDS) polyacrylamide gel electrophoresis, transferred to nitrocellulose membranes (Pall Corporation, New York, NY, USA), and incubated with blocking buffer (5% nonfat dry milk in TBS and 0.1% Tween 20) for 30 min. Western blot analyses were performed using primary antibodies against NF-κB, NLRP3, ASC, nicastrin, pen2 (Cell Signaling Technology, Danvers, MA, USA), Aph1 (Invitrogen), amyloid C-terminal fragment (Santa Cruz Biotechnology, Dallas, TX, USA), and GAPDH (Bethyl Laboratories, Mongomery, TX, USA). Secondary antibodies of rabbit (Promega), rat, and goat (Bethyl Laboratories) were used, and detection was performed with SUPEX ECL reagent (Neuronex, Korea) and an ImageQuant LAS-4000 (GE Healthcare, MA, USA), according to the manufacturer’s instructions. The integrated blot density was quantified through ImageJ.

5xFAD mice [3] = test: qPCR and western blot of inflammation markers in 5xFAD brain; format: in vivo
Description: (§3) DTMB was synthesized from Daejung Chemicals (Korea) and was dissolved in dimethyl sulfoxide (Sigma Aldrich, St. Louis, MO, USA) for cell-based experiments. To evaluate the effects of DTMB on 5xFAD mice, DTMB (10 mg/kg) and vehicle (1% carboxymethylcellulose and 10% DMSO) were orally administrated to four groups (wild-type, wild-type + DTMB, 5xFAD, and 5xFAD + DTMB) with a 6 day per week for 3 months.
as §2
Total RNA was isolated using TRI Reagent (Molecular Research Center, Cincinnati, OH, USA). RNA was reverse transcribed using the ImProm-II™ Reverse Transcription System (Promega) according to the manufacturer’s instructions. For detection and quantification, a StepOnePlus Real-Time PCR System (Applied Biosystems, Foster City, CA, USA) was used with FastStart Universal SYBR Green Master (Roche, Basel, Switzerland). Real-time qPCR data were analyzed using the comparative CT method. Sample sizes were 10–15 mice per group.

primary microglia [4] = test: Western blot of NF-κB, NLRP3 and ASC in primary microglia; format: cell-based, mice; conditions: DTMB 25 µM, 24 h
Description: as §1, §2

[5] = Body and tissue weight after 3 months of treatment; format: in vivo; conditions: 3 months treatment; vehicle- vs DTMB-treated mice
Description: as §3

5xFAD mice [6] = test: Y-maze test in 5xFAD mice; format: in vivo; conditions: 10 mg/kg orally, 3 months
Description: as §3
The Y-maze test was conducted using a black y-shaped maze apparatus that has three equal-sized arms (40 × 3 × 12 cm) separated at 120° angles. The mice were placed into the same side of the arm at every trial and freely moved for 8 min under the dim light conditions (50 lx). To measure spatial memory, the number of arm entries to other sides was measured. The percentage of spontaneous alternation was calculated using the following formula: 100×(ActualAlteration/(Total#ofarmentrance-2)) . Sample sizes were 20–25 mice per group.

5xFAD mice [7] = test: Bulk RNA-seq of hippocampus and cortex; format: in vivo
Description: as §3
RNA-seq libraries were prepared using the NEBNext® Ultra II Directional RNA Library Prep Kit for Illumina (BioLabs, MA, USA) and sequenced on Illumina HiSeq 2500 (San Diego, CA, USA). RNA-seq reads with adapter sequence were trimmed using cutadapt and aligned to the Mouse Ensemble Archive Release 100 by STAR [26]. Gene expression levels were quantified by RSEM [27]. Differential expression analysis was performed by DESeq2 [28], and functional enrichment of Gene ontology (GO) terms and pathways was estimated by Metascape. Pathway enrichment was estimated by GSEA [30] with the following options: “-metric log2_Ratio_of_Classes -permute gene_set.”

[8] = hippocampal brain lysates, 5xFAD mice

body or tissue weight [5]: no changes
Compound: COc1ccc(-c2cc(=O)oc3c(C)c(OC(=O)[C@H](Cc4c[nH]c5ccccc45)NC(=O)OC(C)(C)C)ccc23)cc1 [DTMB]
NO production (nitrite) [1]: reduced NO production in a concentration-dependent manner
inhibition of NO production compared between DTMB and known PPAR agonists [1]: inhibited NO production greater than treatment with the known agonists of PPARα and PPARγ
level of cytokines (TNF-α, IL-1β, IL-6) induced by inflammatory signals (primary microglia [2]): dramatically reduced
protein level of ASC (BV2 cells): not changed
protein level of NF-κB (BV2 cells): decreased
protein level of NLRP3 (BV2 cells): decreased
expression levels of proinflammatory cytokines and related enzymes (Il-1β, Il-6, and Inos) (5xFAD mice [3]; 5xFAD mouse brain, 10 mg/kg orally, 3 months): decreased
level of ASC (5xFAD mice [3]; [8]): not changed significantly
protein level of NF-κB (5xFAD mice [3]; [8]): decreased
protein level of NLRP3 (5xFAD mice [3]; [8]): decreased
protein level of ASC (primary microglia [4]): not changed
protein level of NF-κB (primary microglia [4]): decreased
protein level of NLRP3 (primary microglia [4]): decreased
Y-maze alternation (5xFAD mice [6]): improvement with a percentage similar to that of the wild-type mouse group
gene expression level of Ece1 (5xFAD mice [7]; hippocampus): significantly increased
expression of neprilysin (5xFAD mice [7]; hippocampus and cortex, not statistically significant (p-value is 0.27)): increased
